Holding throughout (assay type): biochemical
The target in one assay is T1, JAK1 (Homo sapiens, UniProt P23458).
T1 construct: purchased Invitrogen
In words: JAK1 enzyme inhibition test (LANCE method). The settings on record: 1 μM test compound; read-out: JAK1 enzyme inhibitory activity (%, 1 μM). In a few lines: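 TR-FRET (LANCE) with ULight-JAK1 peptide (300 nM working solution) and ATP (150 μM working solution) in HEPES pH 7.5, MgCl2, EGTA, DTT buffer; 1 h at room temperature. EDTA stop plus Eu-anti-phosphotyrosine antibody, 665 nm read after 1 h. Inhibition relative to enzyme-free wells as 100%.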

The next assay has as its target T2, JAK2 (Homo sapiens, UniProt O60674).
T2 construct: purchased Invitrogen
In words: JAK2 enzyme inhibition test (LANCE method). The settings on record: 1 μM test compound; read-out: JAK2 enzyme inhibitory activity (%, 1 μM). An outline of the steps: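 Recombinant JAK2 (6 ng/mL solution) phosphorylated ULight-JAK1 peptide (300 nM solution) with ATP (45 μM solution) in pH 7.5 HEPES/MgCl2/DTT buffer for 1 hr at room temperature. After EDTA stop and europium anti-phosphotyrosine antibody for 1 hr, TR-FRET read at 665 nm; inhibition relative to enzyme-free wells as 100%.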

For another assay, the target named is T3, JAK3 (Homo sapiens, UniProt P52333).
T3 construct: purchased Invitrogen
T3 sequence (P52333 1-1124): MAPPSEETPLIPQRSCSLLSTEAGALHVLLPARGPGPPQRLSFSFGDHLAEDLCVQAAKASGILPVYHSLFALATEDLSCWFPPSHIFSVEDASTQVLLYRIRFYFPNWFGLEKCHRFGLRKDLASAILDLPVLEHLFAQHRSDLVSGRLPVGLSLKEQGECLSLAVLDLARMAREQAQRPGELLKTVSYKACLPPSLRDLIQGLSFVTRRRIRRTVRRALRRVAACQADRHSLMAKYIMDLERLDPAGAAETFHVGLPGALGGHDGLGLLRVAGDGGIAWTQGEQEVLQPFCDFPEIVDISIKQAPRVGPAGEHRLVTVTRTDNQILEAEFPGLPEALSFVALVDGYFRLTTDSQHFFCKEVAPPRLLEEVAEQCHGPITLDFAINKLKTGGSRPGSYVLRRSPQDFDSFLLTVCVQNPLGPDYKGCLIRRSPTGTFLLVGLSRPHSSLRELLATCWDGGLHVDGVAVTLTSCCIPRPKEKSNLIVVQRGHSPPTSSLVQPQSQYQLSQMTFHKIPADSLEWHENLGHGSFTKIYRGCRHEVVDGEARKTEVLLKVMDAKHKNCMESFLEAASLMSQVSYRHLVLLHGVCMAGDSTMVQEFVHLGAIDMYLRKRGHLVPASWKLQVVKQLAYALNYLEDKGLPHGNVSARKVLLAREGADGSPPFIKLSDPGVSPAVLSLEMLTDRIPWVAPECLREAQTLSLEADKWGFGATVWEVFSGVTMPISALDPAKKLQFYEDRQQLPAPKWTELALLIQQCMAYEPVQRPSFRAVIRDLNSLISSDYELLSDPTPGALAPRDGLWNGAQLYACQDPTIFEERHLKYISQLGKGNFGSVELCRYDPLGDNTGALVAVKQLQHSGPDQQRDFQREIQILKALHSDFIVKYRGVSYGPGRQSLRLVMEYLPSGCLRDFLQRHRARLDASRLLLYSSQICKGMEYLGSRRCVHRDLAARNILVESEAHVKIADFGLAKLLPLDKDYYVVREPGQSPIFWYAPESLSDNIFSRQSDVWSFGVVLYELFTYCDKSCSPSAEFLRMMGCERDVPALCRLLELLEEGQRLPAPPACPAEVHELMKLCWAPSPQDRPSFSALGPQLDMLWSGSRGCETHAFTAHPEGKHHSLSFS
In words: JAK3 enzyme inhibition test (LANCE method). The settings on record: 1 μM test compound; read-out: JAK3 enzyme inhibitory activity (%, 1 μM). In a few lines: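 Recombinant JAK3 (12 ng/mL solution) with ULight-JAK1 peptide (300 nM solution) and ATP (15 μM solution) in HEPES pH 7.5 buffer, 1 h at room temperature. EDTA stop with Eu-anti-phosphotyrosine antibody; TR-FRET at 665 nm. Inhibition relative to enzyme-free wells as 100%.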
On the technique in general: TR-FRET usually uses a lanthanide donor and a delayed reading to cut background.

The target of a further assay is T4, TYK2 (Homo sapiens, UniProt P29597).
T4 construct: purchased Invitrogen
In words: TYK2 enzyme inhibition test (LANCE method). Conditions: 1 μM test compound; read-out: TYK2 enzyme inhibitory activity (%, 1 μM). In a few lines: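 Recombinant TYK2 (375 ng/mL working solution) with ULight-JAK1 peptide (300 nM working solution) and ATP (30 μM working solution) in HEPES pH 7.5 buffer with MgCl2, EGTA, DTT, Tween20, BSA, reacted 1 h at RT. EDTA-stopped, Eu-anti-phosphotyrosine TR-FRET read at 665 nm; inhibition relative to enzyme-free wells as 100%.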

T2 sequence (O60674 whole entry): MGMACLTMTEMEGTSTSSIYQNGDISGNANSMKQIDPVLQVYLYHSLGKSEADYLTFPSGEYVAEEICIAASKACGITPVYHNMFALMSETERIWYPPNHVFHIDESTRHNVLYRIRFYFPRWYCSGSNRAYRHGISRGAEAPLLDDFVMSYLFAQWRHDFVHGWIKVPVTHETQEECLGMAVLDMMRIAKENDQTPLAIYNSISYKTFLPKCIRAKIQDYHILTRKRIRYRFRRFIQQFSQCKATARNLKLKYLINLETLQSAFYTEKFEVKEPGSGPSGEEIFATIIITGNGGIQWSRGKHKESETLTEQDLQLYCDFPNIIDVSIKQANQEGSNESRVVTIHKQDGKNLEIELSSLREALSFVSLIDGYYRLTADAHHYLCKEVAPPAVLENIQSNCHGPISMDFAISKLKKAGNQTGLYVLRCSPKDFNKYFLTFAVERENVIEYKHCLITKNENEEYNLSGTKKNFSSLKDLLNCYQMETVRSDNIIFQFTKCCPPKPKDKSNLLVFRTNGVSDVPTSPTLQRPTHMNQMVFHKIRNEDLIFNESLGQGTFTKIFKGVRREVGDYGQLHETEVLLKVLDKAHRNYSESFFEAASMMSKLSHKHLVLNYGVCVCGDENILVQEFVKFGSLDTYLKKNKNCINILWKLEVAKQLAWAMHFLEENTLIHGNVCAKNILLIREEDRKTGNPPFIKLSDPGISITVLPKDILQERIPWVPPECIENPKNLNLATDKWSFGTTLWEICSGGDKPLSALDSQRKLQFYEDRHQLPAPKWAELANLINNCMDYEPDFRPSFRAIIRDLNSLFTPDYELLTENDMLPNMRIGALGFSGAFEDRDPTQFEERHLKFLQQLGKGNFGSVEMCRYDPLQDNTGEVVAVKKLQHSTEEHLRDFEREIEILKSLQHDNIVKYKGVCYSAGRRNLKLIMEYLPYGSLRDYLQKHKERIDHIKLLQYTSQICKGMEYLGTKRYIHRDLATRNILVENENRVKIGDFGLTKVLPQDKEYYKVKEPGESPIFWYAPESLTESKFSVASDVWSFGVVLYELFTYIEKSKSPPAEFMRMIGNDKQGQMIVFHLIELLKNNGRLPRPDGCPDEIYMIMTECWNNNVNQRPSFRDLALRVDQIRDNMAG
T1 sequence (P23458 whole entry): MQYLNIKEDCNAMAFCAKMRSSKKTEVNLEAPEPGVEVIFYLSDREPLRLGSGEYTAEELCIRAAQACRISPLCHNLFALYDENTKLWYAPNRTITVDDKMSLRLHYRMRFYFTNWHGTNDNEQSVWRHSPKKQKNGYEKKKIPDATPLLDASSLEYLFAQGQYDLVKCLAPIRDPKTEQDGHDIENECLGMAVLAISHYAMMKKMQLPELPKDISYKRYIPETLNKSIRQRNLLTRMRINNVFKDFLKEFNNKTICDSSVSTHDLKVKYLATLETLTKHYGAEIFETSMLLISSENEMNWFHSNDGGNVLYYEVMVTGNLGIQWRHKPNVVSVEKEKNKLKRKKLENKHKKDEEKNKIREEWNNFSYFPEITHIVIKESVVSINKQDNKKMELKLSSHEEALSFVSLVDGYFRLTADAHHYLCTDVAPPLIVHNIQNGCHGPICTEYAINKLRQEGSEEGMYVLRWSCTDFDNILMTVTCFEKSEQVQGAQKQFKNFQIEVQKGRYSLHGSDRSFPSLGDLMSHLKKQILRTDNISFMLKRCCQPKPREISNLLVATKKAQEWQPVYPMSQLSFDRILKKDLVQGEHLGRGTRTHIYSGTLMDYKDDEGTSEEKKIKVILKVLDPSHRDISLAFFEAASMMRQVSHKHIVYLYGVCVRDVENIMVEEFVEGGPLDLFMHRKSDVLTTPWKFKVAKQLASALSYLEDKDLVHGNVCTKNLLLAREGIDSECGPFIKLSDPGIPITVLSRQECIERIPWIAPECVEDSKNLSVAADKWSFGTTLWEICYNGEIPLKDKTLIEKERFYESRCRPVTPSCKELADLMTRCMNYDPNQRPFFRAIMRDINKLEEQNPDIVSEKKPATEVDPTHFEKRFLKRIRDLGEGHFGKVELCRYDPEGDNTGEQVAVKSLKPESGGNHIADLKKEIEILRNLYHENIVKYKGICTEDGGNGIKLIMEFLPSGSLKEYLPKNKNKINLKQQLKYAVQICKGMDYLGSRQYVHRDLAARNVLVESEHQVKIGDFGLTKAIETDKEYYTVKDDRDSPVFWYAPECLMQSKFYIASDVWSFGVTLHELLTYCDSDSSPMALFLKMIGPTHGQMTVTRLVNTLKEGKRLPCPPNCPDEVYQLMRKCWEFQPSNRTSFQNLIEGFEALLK
T4 sequence (P29597 whole entry): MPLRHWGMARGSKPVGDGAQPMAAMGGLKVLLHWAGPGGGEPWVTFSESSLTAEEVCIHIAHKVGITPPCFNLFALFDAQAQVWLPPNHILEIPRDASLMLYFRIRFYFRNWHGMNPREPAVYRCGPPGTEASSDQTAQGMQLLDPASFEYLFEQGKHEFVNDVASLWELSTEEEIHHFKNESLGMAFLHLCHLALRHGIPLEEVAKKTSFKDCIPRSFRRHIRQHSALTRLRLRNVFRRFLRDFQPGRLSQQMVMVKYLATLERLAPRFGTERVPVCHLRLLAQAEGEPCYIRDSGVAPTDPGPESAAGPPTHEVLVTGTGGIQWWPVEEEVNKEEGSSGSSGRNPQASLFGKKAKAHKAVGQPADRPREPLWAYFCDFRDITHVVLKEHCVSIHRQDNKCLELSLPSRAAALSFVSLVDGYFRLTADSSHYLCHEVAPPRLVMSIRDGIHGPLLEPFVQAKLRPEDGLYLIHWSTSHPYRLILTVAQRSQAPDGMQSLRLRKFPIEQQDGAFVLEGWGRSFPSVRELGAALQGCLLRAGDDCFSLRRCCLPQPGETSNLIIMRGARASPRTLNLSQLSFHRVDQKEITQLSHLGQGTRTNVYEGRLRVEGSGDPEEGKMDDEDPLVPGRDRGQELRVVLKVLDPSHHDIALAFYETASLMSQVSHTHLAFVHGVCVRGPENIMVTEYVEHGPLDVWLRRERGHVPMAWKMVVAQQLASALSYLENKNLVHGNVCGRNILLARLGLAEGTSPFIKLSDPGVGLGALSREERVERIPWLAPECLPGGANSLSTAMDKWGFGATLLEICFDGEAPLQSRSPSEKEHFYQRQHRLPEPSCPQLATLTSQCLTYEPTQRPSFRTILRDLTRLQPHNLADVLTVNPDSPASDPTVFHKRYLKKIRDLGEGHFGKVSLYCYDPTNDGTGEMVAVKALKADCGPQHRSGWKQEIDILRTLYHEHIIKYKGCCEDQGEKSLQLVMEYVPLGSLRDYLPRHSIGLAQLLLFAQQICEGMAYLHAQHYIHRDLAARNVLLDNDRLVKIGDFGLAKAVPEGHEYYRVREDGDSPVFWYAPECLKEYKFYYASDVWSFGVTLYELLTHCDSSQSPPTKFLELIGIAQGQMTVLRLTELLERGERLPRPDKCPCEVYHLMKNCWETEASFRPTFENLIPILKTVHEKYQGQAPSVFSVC

With `Cn1nc(-c2cn(-c3c(F)cccc3F)c(=O)c3c(N)n[nH]c23)cc1C(=O)N1CCOCC1` [Example 66, 3-amino-5-(2,6-difluorophenyl)-7-(1-methyl-5-(morpholin-4-ylcarbonyl)-1H-pyrazol-3-yl)-1,5-dihydro-4H-pyrazolo[4,3-c]pyridin-4-one], the inhibition at 1 µM at JAK1 turned out to be 99%; on JAK2 it was 99%; on JAK3, 100%; at TYK2 it was 100%.
For `CC1CCCCC1n1cc(-c2cc(C(C)(C)O)n(C)n2)c2[nH]nc(N)c2c1=O` (racemic) [Example 116, 3-amino-7-(5-(2-hydroxypropan-2-yl)-1-methyl-1H-pyrazol-3-yl)-5-(2-methylcyclohexyl)-1,5-dihydro-4H-pyrazolo[4,3-c]pyridin-4-one], the inhibition at 1 µM on JAK1 is 101%; on JAK2 it was 100%; on JAK3, 101%; at TYK2 it was 102%.
`CC(C)[C@H](C)n1cc(-c2cc(N3CCS(=O)(=O)CC3)n(CC(F)(F)F)n2)c2[nH]nc(N)c2c1=O` [Example 29, 3-amino-7-(5-(1,1-dioxidothiomorpholin-4-yl)-1-(2,2,2-trifluoroethyl)-1H-pyrazol-3-yl)-5-((2S)-3-methylbutan-2-yl)-1,5-dihydro-4H-pyrazolo[4,3-c]pyridin-4-one]: the inhibition at 1 µM worked out at 47% on JAK1, 49% on JAK2, 67% at JAK3 and 93% on TYK2.
`CN1CCN(c2cc(-c3cn(C(C4CC4)C4CC4)c(=O)c4c(N)n[nH]c34)nn2C)CC1` [Example 149, 3-amino-5-(dicyclopropylmethyl)-7-(1-methyl-5-(4-methylpiperazin-1-yl)-1H-pyrazol-3-yl)-1,5-dihydro-4H-pyrazolo[4,3-c]pyridin-4-one]: the inhibition at 1 µM stood at 100% at JAK1, 99% at JAK2, 101% at JAK3 and 106% at TYK2.
`C[C@@H](C1CC1)n1cc(-c2cc(N3CCOCC3)n(C)n2)c2[nH]nc(N)c2c1=O` [Example 5, 3-amino-5-((1S)-1-cyclopropylethyl)-7-(1-methyl-5-(morpholin-4-yl)-1H-pyrazol-3-yl)-1,5-dihydro-4H-pyrazolo[4,3-c]pyridin-4-one]: the inhibition at 1 µM at JAK1 was found to be 99%; at JAK2 it was 100%; at JAK3, 100%; at TYK2, 100%.
Consider `CN(C)C[C@H]1CCCN1c1cc(-c2cn(-c3c(F)cccc3F)c(=O)c3c(N)n[nH]c23)nn1C` [Example 126, 3-amino-5-(2,6-difluorophenyl)-7-(5-((2R)-2-((dimethylamino)methyl)pyrrolidin-1-yl)-1-methyl-1H-pyrazol-3-yl)-1,5-dihydro-4H-pyrazolo[4,3-c]pyridin-4-one], for which the inhibition at 1 µM at JAK1 was found to be 92%; at JAK2, 98%; at JAK3, 99%; at TYK2, 98%.
For the compound `CNC(=O)c1ccc(-c2cc(-c3cn([C@@H](C)C(C)C)c(=O)c4c(N)n[nH]c34)nn2C)cc1` [Example 40, 4-(3-(3-amino-5-((2S)-3-methylbutan-2-yl)-4-oxo-4,5-dihydro-1H-pyrazolo[4,3-c]pyridin-7-yl)-1-methyl-1H-pyrazol-5-yl)-N-methylbenzamide], the inhibition at 1 µM at JAK1 worked out at 99%; at JAK2, 98%; at JAK3, 99%; on TYK2 it was 100%.
For the compound `Cn1nc(-c2cn(-c3c(F)cccc3C#N)c(=O)c3c(N)n[nH]c23)cc1C1CCOCC1` [Example 69, 2-(3-amino-7-(1-methyl-5-(tetrahydro-2H-pyran-4-yl)-1H-pyrazol-3-yl)-4-oxo-1,4-dihydro-5H-pyrazolo[4,3-c]pyridin-5-yl)-3-fluorobenzonitrile], the inhibition at 1 µM at JAK1 was determined as 97%; on JAK2, 96%; on JAK3, 98%; on TYK2, 99%.
Consider `CC(C)[C@H](C)n1cc(-c2cc(N3CCCCC3)n(C)n2)c2[nH]nc(N)c2c1=O` [Example 19, 3-amino-5-((2S)-3-methylbutan-2-yl)-7-(1-methyl-5-(piperidin-1-yl)-1H-pyrazol-3-yl)-1,5-dihydro-4H-pyrazolo[4,3-c]pyridin-4-one], for which the inhibition at 1 µM on JAK1 came out at 98%; at JAK2, 98%; at JAK3, 99%; at TYK2, 99%.
For `CC(C)[C@H](C)n1cc(-c2cc(C3(O)CCC3)n(C)n2)c2[nH]nc(N)c2c1=O` [Example 38, 3-amino-7-(5-(1-hydroxycyclobutyl)-1-methyl-1H-pyrazol-3-yl)-5-((2S)-3-methylbutan-2-yl)-1,5-dihydro-4H-pyrazolo[4,3-c]pyridin-4-one], the inhibition at 1 µM came to 99% on JAK1, 99% at JAK2, 100% at JAK3 and 100% at TYK2.
`C[C@@H](C1CC1)n1cc(-c2cc(C(C)(C)O)n(C)n2)c2[nH]nc(N)c2c1=O` [Example 7, 3-amino-5-((1S)-1-cyclopropylethyl)-7-(5-(2-hydroxypropan-2-yl)-1-methyl-1H-pyrazol-3-yl)-1,5-dihydro-4H-pyrazolo[4,3-c]pyridin-4-one]: the inhibition at 1 µM on JAK1 is 100%; on JAK2 it was 100%; on JAK3, 100%; at TYK2, 99%.
On to `C[C@@H](C1CC1)n1cc(-c2cc(N3CCC(C)(O)CC3)n(C)n2)c2[nH]nc(N)c2c1=O` [Example 8, 3-amino-5-((1S)-1-cyclopropylethyl)-7-(5-(4-hydroxy-4-methylpiperidin-1-yl)-1-methyl-1H-pyrazol-3-yl)-1,5-dihydro-4H-pyrazolo[4,3-c]pyridin-4-one], for which the inhibition at 1 µM at JAK1 is 99%; at JAK2 it was 99%; on JAK3, 100%; at TYK2 it was 99%.
Regarding `COC1(c2cc(-c3cn(C(C4CC4)C4CC4)c(=O)c4c(N)n[nH]c34)nn2C)CN(C(=O)C(C)C)C1` [Example 89, 3-amino-5-(dicyclopropylmethyl)-7-(5-(1-isobutyryl-3-methoxyazetidin-3-yl)-1-methyl-1H-pyrazol-3-yl)-1,5-dihydro-4H-pyrazolo[4,3-c]pyridin-4-one], the inhibition at 1 µM was 97% on JAK1, 99% at JAK2, 99% at JAK3 and 100% on TYK2.
Consider `CC(C)[C@H](C)n1cc(-c2cc(CN3CCS(=O)(=O)CC3)n(C)n2)c2[nH]nc(N)c2c1=O` [Example 47, 3-amino-7-(5-((1,1-dioxidothiomorpholin-4-yl)methyl)-1-methyl-1H-pyrazol-3-yl)-5-((2S)-3-methylbutan-2-yl)-1,5-dihydro-4H-pyrazolo[4,3-c]pyridin-4-one], for which the inhibition at 1 µM on JAK1 came to 93%; on JAK2, 98%; at JAK3, 100%; at TYK2, 99%.
